Results taken from patent US20100267561A1, “HERBICIDAL PYRIDAZINONE DERIVATIVES” (priority 2007, published 2010).

Legend:
Format in all cases: in vivo
corn (Zea mays) = experiment: Test A pre-/postemergence plant response
Description: (§1) Seeds of species selected from barnyardgrass (Echinochloa crus-galli), large crabgrass (Digitaria sanguinalis), giant foxtail (Setaria faberi), blackgrass (Alopecurus myosuroides), canarygrass (Phalaris minor), morningglory (Ipomoea coccinea), pigweed (Amaranthus retroflexus), velvetleaf (Abutilon theophrasti), wheat (Triticum aestivum), and corn (Zea mays) were planted into a blend of loam soil and sand and treated preemergence with a directed soil spray using test chemicals formulated in a non-phytotoxic solvent mixture which included a surfactant. At the same time these species were also treated with postemergence applications of test chemicals formulated in the same manner.
(§2) Plants ranged in height from 2 to 10 cm and were in the one- to two-leaf stage for the postemergence treatment. Treated plants and untreated controls were maintained in a greenhouse for approximately 10 days, after which time all treated plants were compared to untreated controls and visually evaluated for injury. Plant response ratings, summarized in Table A, are based on a 0 to 100 scale where 0 is no effect and 100 is complete control. A dash (-) response means no test results.

[1] = tested on: wheat (Triticum aestivum); experiment: Test A pre-/postemergence plant response
Description: as §1, §2

[2] = tested on: large crabgrass (Digitaria sanguinalis); experiment: Test A pre-/postemergence plant response
Description: as §1, §2

[3] = tested on: barnyardgrass (Echinochloa crus-galli); experiment: Test A pre-/postemergence plant response
Description: as §1, §2

[4] = tested on: pigweed (Amaranthus retroflexus); experiment: Test A pre-/postemergence plant response
Description: as §1, §2

[5] = tested on: morningglory (Ipomoea coccinea); experiment: Test A pre-/postemergence plant response
Description: as §1, §2

[6] = tested on: giant foxtail (Setaria faberi); experiment: Test A pre-/postemergence plant response
Description: as §1, §2

[7] = tested on: velvetleaf (Abutilon theophrasti); experiment: Test A pre-/postemergence plant response
Description: as §1, §2

rice (Oryza sativa) = experiment: Test B flooded paddy test plant response
Description: (§3) Plant species in the flooded paddy test consisted of rice (Oryza sativa), umbrella sedge (Cyperus difformis), ducksalad (Heteranthera limosa) and barnyardgrass (Echinochloa crus-galli) grown to the 2-leaf stage for testing. At time of treatment, test pots were flooded to 3 cm above the soil surface, treated by application of test compounds directly to the paddy water, and then maintained at that water depth for the duration of the test. Treated plants and controls were maintained in a greenhouse for 13 to 15 days, after which time all species were compared to controls and visually evaluated. Plant response ratings, summarized in Table B, are based on a scale of 0 to 100 where 0 is no effect and 100 is complete control. A dash (-) response means no test result.

[8] = tested on: umbrella sedge (Cyperus difformis); experiment: Test B flooded paddy test plant response
Description: as §3

[9] = tested on: barnyardgrass (Echinochloa crus-galli); experiment: Test B flooded paddy test plant response
Description: as §3

[10] = tested on: ducksalad (Heteranthera limosa); experiment: Test B flooded paddy test plant response
Description: as §3

[11] = Postemergence, 125 g ai/ha, 0 to 100 scale, 0 no effect, 100 complete control
[12] = Postemergence, 500 g ai/ha, 0 to 100 scale, 0 no effect, 100 complete control
[13] = Preemergence, 125 g ai/ha, 0 to 100 scale (0 no effect, 100 complete control)
[14] = Preemergence, 500 g ai/ha, 0 to 100 scale (0 no effect, 100 complete control)
[15] = Flood (flooded paddy test), 62 g ai/ha, scale 0 to 100, 0 no effect, 100 complete control
[16] = Flood (flooded paddy test), 125 g ai/ha, scale 0 to 100, 0 no effect, 100 complete control
[17] = Flood (flooded paddy test), 250 g ai/ha, scale 0 to 100, 0 no effect, 100 complete control
[18] = Flood, 31 g ai/ha, scale 0 to 100
[19] = Postemergence, 31 g ai/ha, 0 to 100 scale, 0 no effect, 100 complete control
[20] = Preemergence, 31 g ai/ha, 0 to 100 scale, 0 is no effect, 100 is complete control

CCc1cc(-c2ccc(Cl)c(Cl)c2)nn1-c1c(OC(=O)OC(C)C)cnn(C)c1=O [Compound 22]
100: Plant response rating, Barnyardgrass [3, 14] | Plant response rating, Foxtail, Giant [6, 14]
80: Plant response rating, Crabgrass, Large [2, 12] | Plant response rating, Foxtail, Giant [6, 12]
20: Plant response rating, Corn (corn (Zea mays); [11]) | Plant response rating, Wheat [1, 11]
70: Plant response rating, Corn (corn (Zea mays); [14]) | Plant response rating, Wheat [1, 14]
10: Plant response rating, Crabgrass, Large [2, 11]
0: Plant response rating, Pigweed [4, 11] | Plant response rating, Pigweed [4, 12] | Plant response rating, Pigweed [4, 13] | Plant response rating, Pigweed [4, 14] | Plant response rating, Morningglory [5, 11] | Plant response rating, Morningglory [5, 12] | Plant response rating, Morningglory [5, 13] | Plant response rating, Morningglory [5, 14] | Plant response rating, Velvetleaf [7, 11] | Plant response rating, Velvetleaf [7, 12] | Plant response rating, Velvetleaf [7, 13] | Plant response rating, Velvetleaf [7, 14] | Plant response rating, Rice (rice (Oryza sativa); [15]) | Plant response rating, Rice (rice (Oryza sativa); [16]) | Plant response rating, Rice (rice (Oryza sativa); [17]) | Plant response rating, Rice (rice (Oryza sativa); [18]) | Plant response rating, Sedge, Umbrella [8, 15] | Plant response rating, Sedge, Umbrella [8, 16] | Plant response rating, Sedge, Umbrella [8, 17] | Plant response rating, Sedge, Umbrella [8, 18] | Plant response rating, Barnyardgrass [9, 15] | Plant response rating, Barnyardgrass [9, 16] | Plant response rating, Barnyardgrass [9, 17] | Plant response rating, Barnyardgrass [9, 18] | Plant response rating, Ducksalad [10, 15] | Plant response rating, Ducksalad [10, 16] | Plant response rating, Ducksalad [10, 17] | Plant response rating, Ducksalad [10, 18]
30: Plant response rating, Corn (corn (Zea mays); [13]) | Plant response rating, Barnyardgrass [3, 13]
60: Plant response rating, Wheat [1, 12] | Plant response rating, Foxtail, Giant [6, 11]
50: Plant response rating, Crabgrass, Large [2, 13] | Plant response rating, Barnyardgrass [3, 11]
90: Plant response rating, Corn (corn (Zea mays); [12]) | Plant response rating, Crabgrass, Large [2, 14] | Plant response rating, Barnyardgrass [3, 12] | Plant response rating, Foxtail, Giant [6, 13]
40: Plant response rating, Wheat [1, 13]

Cc1cc(-c2ccc(C(F)(F)F)cc2)nn1-c1c(O)c(C(F)(F)F)nn(C)c1=O [Compound 42]
10: Plant response rating, Wheat [1, 12] | Plant response rating, Foxtail, Giant [6, 12]
20: Plant response rating, Corn (corn (Zea mays); [11]) | Plant response rating, Corn (corn (Zea mays); [12])
0: Plant response rating, Corn (corn (Zea mays); [13]) | Plant response rating, Corn (corn (Zea mays); [14]) | Plant response rating, Wheat [1, 11] | Plant response rating, Wheat [1, 13] | Plant response rating, Wheat [1, 14] | Plant response rating, Crabgrass, Large [2, 11] | Plant response rating, Crabgrass, Large [2, 12] | Plant response rating, Crabgrass, Large [2, 13] | Plant response rating, Crabgrass, Large [2, 14] | Plant response rating, Barnyardgrass [3, 11] | Plant response rating, Barnyardgrass [3, 12] | Plant response rating, Barnyardgrass [3, 13] | Plant response rating, Barnyardgrass [3, 14] | Plant response rating, Pigweed [4, 11] | Plant response rating, Pigweed [4, 12] | Plant response rating, Pigweed [4, 13] | Plant response rating, Pigweed [4, 14] | Plant response rating, Morningglory [5, 11] | Plant response rating, Morningglory [5, 12] | Plant response rating, Morningglory [5, 13] | Plant response rating, Morningglory [5, 14] | Plant response rating, Foxtail, Giant [6, 11] | Plant response rating, Foxtail, Giant [6, 13] | Plant response rating, Foxtail, Giant [6, 14] | Plant response rating, Velvetleaf [7, 11] | Plant response rating, Velvetleaf [7, 12] | Plant response rating, Velvetleaf [7, 13] | Plant response rating, Velvetleaf [7, 14] | Plant response rating, Rice (rice (Oryza sativa); [15]) | Plant response rating, Rice (rice (Oryza sativa); [16]) | Plant response rating, Rice (rice (Oryza sativa); [17]) | Plant response rating, Rice (rice (Oryza sativa); [18]) | Plant response rating, Sedge, Umbrella [8, 15] | Plant response rating, Sedge, Umbrella [8, 16] | Plant response rating, Sedge, Umbrella [8, 17] | Plant response rating, Sedge, Umbrella [8, 18] | Plant response rating, Barnyardgrass [9, 15] | Plant response rating, Barnyardgrass [9, 16] | Plant response rating, Barnyardgrass [9, 17] | Plant response rating, Barnyardgrass [9, 18] | Plant response rating, Ducksalad [10, 15] | Plant response rating, Ducksalad [10, 16] | Plant response rating, Ducksalad [10, 17] | Plant response rating, Ducksalad [10, 18]

Cc1cc(-c2ccc(Cl)cc2)nn1-c1c(OS(=O)(=O)C2CC2)cnn(C)c1=O [Compound 49]
20: Plant response rating, Crabgrass, Large [2, 11] | Plant response rating, Foxtail, Giant [6, 11]
40: Plant response rating, Crabgrass, Large [2, 13]
80: Plant response rating, Foxtail, Giant [6, 13]
0: Plant response rating, Corn (corn (Zea mays); [19]) | Plant response rating, Corn (corn (Zea mays); [11]) | Plant response rating, Corn (corn (Zea mays); [20]) | Plant response rating, Corn (corn (Zea mays); [13]) | Plant response rating, Wheat [1, 19] | Plant response rating, Wheat [1, 11] | Plant response rating, Wheat [1, 20] | Plant response rating, Wheat [1, 13] | Plant response rating, Crabgrass, Large [2, 19] | Plant response rating, Crabgrass, Large [2, 20] | Plant response rating, Barnyardgrass [3, 19] | Plant response rating, Barnyardgrass [3, 11] | Plant response rating, Barnyardgrass [3, 20] | Plant response rating, Barnyardgrass [3, 13] | Plant response rating, Pigweed [4, 19] | Plant response rating, Pigweed [4, 11] | Plant response rating, Pigweed [4, 20] | Plant response rating, Pigweed [4, 13] | Plant response rating, Morningglory [5, 19] | Plant response rating, Morningglory [5, 11] | Plant response rating, Morningglory [5, 20] | Plant response rating, Morningglory [5, 13] | Plant response rating, Foxtail, Giant [6, 19] | Plant response rating, Foxtail, Giant [6, 20] | Plant response rating, Velvetleaf [7, 19] | Plant response rating, Velvetleaf [7, 11] | Plant response rating, Velvetleaf [7, 20] | Plant response rating, Velvetleaf [7, 13] | Plant response rating, Rice (rice (Oryza sativa); [15]) | Plant response rating, Rice (rice (Oryza sativa); [16]) | Plant response rating, Rice (rice (Oryza sativa); [17]) | Plant response rating, Rice (rice (Oryza sativa); [18]) | Plant response rating, Sedge, Umbrella [8, 15] | Plant response rating, Sedge, Umbrella [8, 16] | Plant response rating, Sedge, Umbrella [8, 17] | Plant response rating, Sedge, Umbrella [8, 18] | Plant response rating, Barnyardgrass [9, 15] | Plant response rating, Barnyardgrass [9, 16] | Plant response rating, Barnyardgrass [9, 17] | Plant response rating, Barnyardgrass [9, 18] | Plant response rating, Ducksalad [10, 15] | Plant response rating, Ducksalad [10, 17] | Plant response rating, Ducksalad [10, 18]
